Data from patent US4291021A, “Novel macrolide antibiotics and preparation thereof” (Toyo Jozo Company, Ltd., priority 1978, dated 1981).

Tests used:
Serratia marcescence = assay: antibacterial spectrum, agar dilution method; format: cell-based; conditions: 10^8 x1
acidic or basic nature = format: physicochemical
[1] = test system: Staphylococcus aureus (0116); assay: antibacterial spectrum, agar dilution method; format: cell-based; conditions: S. aureus 0116, 10^8 x1
[2] = test system: Staphylococcus aureus (0127); assay: antibacterial spectrum, agar dilution method; format: cell-based; conditions: S. aureus 0127, 10^8 x1
[3] = test system: Staphylococcus aureus (0119); assay: antibacterial spectrum, agar dilution method; format: cell-based; conditions: S. aureus 0119, 10^8 x1
[4] = test system: Staphylococcus aureus (ATCC 6538 P); assay: antibacterial spectrum, agar dilution method; format: cell-based; conditions: S. aureus ATCC 6538 P, 10^8 x1
Mycoplasma gallisepticum = assay: anti-mycoplasmal spectrum, agar dilution method; format: cell-based; conditions: 10^8 x1
[5] = test system: Bacillus subtilis (ATCC 6633); assay: antibacterial spectrum, agar dilution method; format: cell-based; conditions: 10^8 x1
[6] = test system: Streptococcus pyogenes (1022); assay: antibacterial spectrum, agar dilution method; format: cell-based; conditions: S. pyogenes 1022, 10^8 x1
[7] = test system: Streptococcus agalactiae (1020); assay: antibacterial spectrum, agar dilution method; format: cell-based; conditions: S. agalactiae 1020, 10^8 x1
[8] = test system: Staphylococcus aureus (MS 353 C36); assay: antibacterial spectrum, agar dilution method; format: cell-based; conditions: S. aureus MS 353 C36, 10^8 x1
[9] = test system: Klebsiella pneumoniae (ATCC 10031); assay: antibacterial spectrum, agar dilution method; format: cell-based; conditions: 10^8 x1
[10] = test system: Pseudomonas aeruginosa (IAM 1095); assay: antibacterial spectrum, agar dilution method; format: cell-based; conditions: 10^8 x1
[11] = test system: Sarcina lutea (ATCC 9341); assay: antibacterial spectrum, agar dilution method; format: cell-based; conditions: 10^8 x1
Mycoplasma synoviae = assay: anti-mycoplasmal spectrum, agar dilution method; format: cell-based; conditions: 10^8 x1
[12] = test system: Streptococcus pyogenes (N.Y.5); assay: antibacterial spectrum, agar dilution method; format: cell-based; conditions: S. pyogenes N.Y.5, 10^8 x1
[13] = test system: Shigella flexneri type 3a; assay: antibacterial spectrum, agar dilution method; format: cell-based; conditions: 10^8 x1
[14] = test system: Micrococcus flavus (ATCC 10240); assay: antibacterial spectrum, agar dilution method; format: cell-based; conditions: 10^8 x1
[15] = test system: Staphylococcus epidermidis (s.p.-al-l); assay: antibacterial spectrum, agar dilution method; format: cell-based; conditions: 10^8 x1
solubility = format: physicochemical
[16] = test system: Salmonella typhosa (E 901); assay: antibacterial spectrum, agar dilution method; format: cell-based; conditions: 10^8 x1
[17] = test system: Streptococcus faecalis (1501); assay: antibacterial spectrum, agar dilution method; format: cell-based; conditions: S. faecalis 1501, 10^8 x1
[18] = test system: Salmonella enteritidis gertner; assay: antibacterial spectrum, agar dilution method; format: cell-based; conditions: 10^8 x1
[19] = test system: Staphylococcus aureus (MS 353 AO); assay: antibacterial spectrum, agar dilution method; format: cell-based; conditions: S. aureus MS 353 AO, 10^8 x1
Escherichia coli (B) = assay: antibacterial spectrum, agar dilution method; format: cell-based; conditions: E. coli B, 10^8 x1
[20] = test system: Escherichia coli (NIHJ-JC2); assay: antibacterial spectrum, agar dilution method; format: cell-based; conditions: E. coli NIHJ-JC2, 10^8 x1
[21] = test system: Corynebacterium diphtheriae (P.W.8); assay: antibacterial spectrum, agar dilution method; format: cell-based; conditions: 10^8 x1
Proteus vulgaris (OX19) = assay: antibacterial spectrum, agar dilution method; format: cell-based; conditions: 10^8 x1
[22] = test system: Staphylococcus aureus (MS 353); assay: antibacterial spectrum, agar dilution method; format: cell-based; conditions: S. aureus MS 353, 10^8 x1
Shigella sonney (E 33) = assay: antibacterial spectrum, agar dilution method; format: cell-based; conditions: 10^8 x1

SMILES	Minimum growth inhibitory concentration (Serratia marcescence) [µg/mL]	Acidic or basic nature (acidic or basic nature)	Minimum growth inhibitory concentration [1] [µg/mL]	Minimum growth inhibitory concentration [2] [µg/mL]	Minimum growth inhibitory concentration [3] [µg/mL]	Minimum growth inhibitory concentration [4] [µg/mL]	Minimum growth inhibitory concentration (Mycoplasma gallisepticum) [µg/mL]	Minimum growth inhibitory concentration [5] [µg/mL]	Minimum growth inhibitory concentration [6] [µg/mL]	Minimum growth inhibitory concentration [7] [µg/mL]	Minimum growth inhibitory concentration [8] [µg/mL]	Minimum growth inhibitory concentration [9] [µg/mL]	Minimum growth inhibitory concentration [10] [µg/mL]	Minimum growth inhibitory concentration [11] [µg/mL]	Minimum growth inhibitory concentration (Mycoplasma synoviae) [µg/mL]	Minimum growth inhibitory concentration [12] [µg/mL]	Minimum growth inhibitory concentration [13] [µg/mL]	Minimum growth inhibitory concentration [14] [µg/mL]	Minimum growth inhibitory concentration [15] [µg/mL]	Minimum growth inhibitory concentration [16] [µg/mL]	further results
CC[C@H]1OC(=O)/C=C/[C@H](C)[C@@H](O[C@@H]2O[C@H](C)C[C@H](N(C)C)[C@H]2O)[C@@H](C)C[C@@H](C)C(=O)/C=C/C2OC2[C@@H]1CO[C@@H]1O[C@H](C)[C@@H](O)[C@@H](OC)[C@H]1OC (stereo partly drawn) [A 11725 I]	> 100	Basic	> 100	> 100	> 100	0.2	0.006	0.4	> 100	12.5	≤ 0.05	25	> 100	≤ 0.05	0.03	≤ 0.05	100	≤ 0.05	0.1	> 100	Solubility in acidic water and organic solvents (solubility; acidic water, methanol, acetone, ethyl acetate, benzene): Soluble; Minimum growth inhibitory concentration [17]: > 100 µg/mL; Minimum growth inhibitory concentration [18]: > 100 µg/mL; Minimum growth inhibitory concentration [19]: > 100 µg/mL; Minimum growth inhibitory concentration (Escherichia coli (B)): 100 µg/mL; Minimum growth inhibitory concentration [20]: > 100 µg/mL; Minimum growth inhibitory concentration [21]: 0.4 µg/mL; Minimum growth inhibitory concentration (Proteus vulgaris (OX19)): 100 µg/mL; Minimum growth inhibitory concentration [22]: 0.2 µg/mL; Minimum growth inhibitory concentration (Shigella sonney (E 33)): > 100 µg/mL
CC[C@H]1OC(=O)/C=C/[C@H](C)[C@@H](O[C@@H]2O[C@H](C)C[C@H](N(C)C)[C@H]2O)[C@@H](C)C[C@@H](C)C(=O)/C=C/[C@@H]2O[C@H]2[C@]1(O)CO[C@@H]1O[C@H](C)[C@@H](O)[C@@H](OC)[C@H]1OC [A 11725 II]	> 100	Basic	> 100	> 100	> 100	0.2	0.03	0.4	> 100	6.3	0.1	25	> 100	≤ 0.05	0.8	≤ 0.05	50	0.2	0.1	> 100	Solubility compared with A 11725 I (solubility; similar to A 11725 I): Similar; Minimum growth inhibitory concentration [17]: > 100 µg/mL; Minimum growth inhibitory concentration [18]: > 100 µg/mL; Minimum growth inhibitory concentration [19]: > 100 µg/mL; Minimum growth inhibitory concentration (Escherichia coli (B)): 25 µg/mL; Minimum growth inhibitory concentration [20]: > 100 µg/mL; Minimum growth inhibitory concentration [21]: 0.4 µg/mL; Minimum growth inhibitory concentration (Proteus vulgaris (OX19)): 50 µg/mL; Minimum growth inhibitory concentration [22]: 0.2 µg/mL; Minimum growth inhibitory concentration (Shigella sonney (E 33)): > 100 µg/mL
